*1 amine or outer side, *2 acyl side, *3 side chain or, on linkers, in order; H or OH if unused. Where a SMILES comes first, the peptide text is derived from it. [ ]: non-standard residue; d: D form. The star is where a group is joined. Pro(3R,4S-CMe2) = CC1(C)[C@@H]2[C@@H](C(=O)O)NC[C@@H]21; X1 = CN(C[C@@H](N*)C(C)(C)C)S(C)(=O)=O; Abu(4,4-F2) = N[C@@H](CC(F)F)C(=O)O; Phe(ol) = N[C@H](CO)Cc1ccccc1; Tle = CC(C)(C)[C@H](N)C(=O)O; CO = O=C([*:1])[*:2]
target: T1, HCV NS3/NS4a serine protease (Hepatitis C virus genotype 1b, UniProt P26663); experiment: Spectrophotometric assay for HCV protease inhibitory activity (chromogenic ester substrates); type: biochemical, hepatitis C virus (strain 1b); conditions: Ki, Table 3; rating; single chain NS4A21-32-GSGS-NS3 3-181 protease, 30° C., pH 6.5
T1 construct: amino terminus of the NS3 protease domain (amino acids 3-181) with a tetrapeptide linker; made in house; host or cells: E. coli
Summary of the method: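 Single-chain NS4A(21-32)-GSGS-NS3(3-181) protease (genotype 1b) from E. coli was used at 1.3 nM in 25 mM MOPS pH 6.5 with 300 mM NaCl, 30 °C and 4% DMSO. Chromogenic ester substrate cleavage was followed as PAP release at 370 nm over 60 min. Ki was derived from vo/vi versus [I] plots assuming competitive inhibition.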

T1 sequence (P26663 1013-1207, looked up, natural form): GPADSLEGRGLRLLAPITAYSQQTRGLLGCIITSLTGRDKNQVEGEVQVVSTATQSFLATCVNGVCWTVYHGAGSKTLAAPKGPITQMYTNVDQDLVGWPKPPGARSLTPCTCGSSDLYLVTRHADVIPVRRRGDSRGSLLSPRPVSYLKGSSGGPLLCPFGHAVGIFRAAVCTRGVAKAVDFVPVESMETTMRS

CN(C[C@@H](NC(=O)N[C@H](C(=O)N1C[C@H]2[C@@H]([C@H]1C(=O)N[C@@H](CC(F)F)C(=O)NC1CCc3ccccc31)C2(C)C)C(C)(C)C)C(C)(C)C)S(C)(=O)=O (some centres unmarked) [Example 217] and CN(C[C@@H](NC(=O)N[C@H](C(=O)N1C[C@H]2[C@@H]([C@H]1C(=O)N[C@@H](CC(F)F)C(=O)NC1CCCc3ccccc31)C2(C)C)C(C)(C)C)C(C)(C)C)S(C)(=O)=O (some centres unmarked) [Example 224] cannot be ordered by Ki: greater than 0.5 µM for the first, greater than 0.5 µM for the second.

CN(C[C@@H](NC(=O)N[C@H](C(=O)N1C[C@H]2[C@@H]([C@H]1C(=O)N[C@@H](CC(F)F)C(=O)NC1Cc3ccccc3C1)C2(C)C)C(C)(C)C)C(C)(C)C)S(C)(=O)=O [Example 218] and CN(C[C@@H](NC(=O)N[C@H](C(=O)N1C[C@H]2[C@@H]([C@H]1C(=O)N[C@@H](CC(F)F)C(=O)N[C@@H]1c3ccccc3C[C@@H]1O)C2(C)C)C(C)(C)C)C(C)(C)C)S(C)(=O)=O [Example 247] cannot be ordered by Ki: greater than 0.5 µM for the first, greater than 0.5 µM for the second.

First: CC(CNC(=O)[C@H](CC(F)F)NC(=O)[C@@H]1[C@@H]2[C@H](CN1C(=O)[C@@H](NC(=O)N[C@H](CN(C)S(C)(=O)=O)C(C)(C)C)C(C)(C)C)C2(C)C)c1ccccc1 (some centres unmarked) [Example 219]
Second: CN(C[C@@H](NC(=O)N[C@H](C(=O)N1C[C@H]2[C@@H]([C@H]1C(=O)N[C@@H](CC(F)F)C(=O)NCC(O)c1ccccc1)C2(C)C)C(C)(C)C)C(C)(C)C)S(C)(=O)=O (some centres unmarked) [Example 246]
The Ki of the first is lower: less than 0.1 µM for the first, 0.1 to 0.5 µM for the second.

CN(C[C@@H](NC(=O)N[C@H](C(=O)N1C[C@H]2[C@@H]([C@H]1C(=O)N[C@@H](CC(F)F)C(=O)NCCCc1ccccc1)C2(C)C)C(C)(C)C)C(C)(C)C)S(C)(=O)=O [Example 220] and CC(CCc1ccccc1)NC(=O)[C@H](CC(F)F)NC(=O)[C@@H]1[C@@H]2[C@H](CN1C(=O)[C@@H](NC(=O)N[C@H](CN(C)S(C)(=O)=O)C(C)(C)C)C(C)(C)C)C2(C)C (some centres unmarked) [Example 225] cannot be ordered by Ki: greater than 0.5 µM for the first, greater than 0.5 µM for the second.

Going from CN(C[C@@H](NC(=O)N[C@H](C(=O)N1C[C@H]2[C@@H]([C@H]1C(=O)N[C@@H](CC(F)F)C(=O)NCCOc1ccccc1)C2(C)C)C(C)(C)C)C(C)(C)C)S(C)(=O)=O [Example 221] to CN(C[C@@H](NC(=O)N[C@H](C(=O)N1C[C@H]2[C@@H]([C@H]1C(=O)N[C@@H](CC(F)F)C(=O)NCCc1ccccc1Cl)C2(C)C)C(C)(C)C)C(C)(C)C)S(C)(=O)=O [Example 251], the Ki falls from greater than 0.5 µM to less than 0.1 µM.

COc1ccccc1CNC(=O)[C@H](CC(F)F)NC(=O)[C@@H]1[C@@H]2[C@H](CN1C(=O)[C@@H](NC(=O)N[C@H](CN(C)S(C)(=O)=O)C(C)(C)C)C(C)(C)C)C2(C)C [Example 222] and CN(C[C@@H](NC(=O)N[C@H](C(=O)N1C[C@H]2[C@@H]([C@H]1C(=O)N[C@@H](CC(F)F)C(=O)NCc1ccccn1)C2(C)C)C(C)(C)C)C(C)(C)C)S(C)(=O)=O [Example 233] cannot be ordered by Ki: greater than 0.5 µM for the first, greater than 0.5 µM for the second.

CN(C[C@@H](NC(=O)N[C@H](C(=O)N1C[C@H]2[C@@H]([C@H]1C(=O)N[C@@H](CC(F)F)C(=O)NCCCN1CCCC1=O)C2(C)C)C(C)(C)C)C(C)(C)C)S(C)(=O)=O [Example 223] and CN(C[C@@H](NC(=O)N[C@H](C(=O)N1C[C@H]2[C@@H]([C@H]1C(=O)N[C@@H](CC(F)F)C(=O)NCCCN1CCOCC1)C2(C)C)C(C)(C)C)C(C)(C)C)S(C)(=O)=O [Example 242] cannot be ordered by Ki: greater than 0.5 µM for the first, greater than 0.5 µM for the second.

Going from CC(NC(=O)[C@H](CC(F)F)NC(=O)[C@@H]1[C@@H]2[C@H](CN1C(=O)[C@@H](NC(=O)N[C@H](CN(C)S(C)(=O)=O)C(C)(C)C)C(C)(C)C)C2(C)C)c1ccc(Cl)cc1 (some centres unmarked) [Example 226] to CN(C[C@@H](NC(=O)N[C@H](C(=O)N1C[C@H]2[C@@H]([C@H]1C(=O)N[C@@H](CC(F)F)C(=O)NCCc1ccc(Cl)cc1)C2(C)C)C(C)(C)C)C(C)(C)C)S(C)(=O)=O [Example 250], the Ki falls from greater than 0.5 µM to less than 0.1 µM.

CCOC(=O)N1CCC(NC(=O)[C@H](CC(F)F)NC(=O)[C@@H]2[C@@H]3[C@H](CN2C(=O)[C@@H](NC(=O)N[C@H](CN(C)S(C)(=O)=O)C(C)(C)C)C(C)(C)C)C3(C)C)CC1 [Example 227] and CN(C[C@@H](NC(=O)N[C@H](C(=O)N1C[C@H]2[C@@H]([C@H]1C(=O)N[C@@H](CC(F)F)C(=O)NC1CCN(Cc3ccccc3)CC1)C2(C)C)C(C)(C)C)C(C)(C)C)S(C)(=O)=O [Example 243] cannot be ordered by Ki: greater than 0.5 µM for the first, greater than 0.5 µM for the second.

CN(C[C@@H](NC(=O)N[C@H](C(=O)N1C[C@H]2[C@@H]([C@H]1C(=O)N[C@@H](CC(F)F)C(=O)NCC(c1ccccc1)c1ccccc1)C2(C)C)C(C)(C)C)C(C)(C)C)S(C)(=O)=O [Example 228] and CN(C[C@@H](NC(=O)N[C@H](C(=O)N1C[C@H]2[C@@H]([C@H]1C(=O)N[C@@H](CC(F)F)C(=O)NCCC(c1ccccc1)c1ccccc1)C2(C)C)C(C)(C)C)C(C)(C)C)S(C)(=O)=O [Example 229] cannot be ordered by Ki: greater than 0.5 µM for the first, greater than 0.5 µM for the second.

CC(CO)NC(=O)[C@H](CC(F)F)NC(=O)[C@@H]1[C@@H]2[C@H](CN1C(=O)[C@@H](NC(=O)N[C@H](CN(C)S(C)(=O)=O)C(C)(C)C)C(C)(C)C)C2(C)C (some centres unmarked) [Example 230] and CC(C)[C@@H](CO)NC(=O)[C@H](CC(F)F)NC(=O)[C@@H]1[C@@H]2[C@H](CN1C(=O)[C@@H](NC(=O)N[C@H](CN(C)S(C)(=O)=O)C(C)(C)C)C(C)(C)C)C2(C)C [Example 232] cannot be ordered by Ki: greater than 0.5 µM for the first, greater than 0.5 µM for the second.

CC(O)CNC(=O)[C@H](CC(F)F)NC(=O)[C@@H]1[C@@H]2[C@H](CN1C(=O)[C@@H](NC(=O)N[C@H](CN(C)S(C)(=O)=O)C(C)(C)C)C(C)(C)C)C2(C)C (some centres unmarked) [Example 231] and CN(C)CC(C)(C)CNC(=O)[C@H](CC(F)F)NC(=O)[C@@H]1[C@@H]2[C@H](CN1C(=O)[C@@H](NC(=O)N[C@H](CN(C)S(C)(=O)=O)C(C)(C)C)C(C)(C)C)C2(C)C [Example 241] cannot be ordered by Ki: greater than 0.5 µM for the first, greater than 0.5 µM for the second.

CCN(CC)CCNC(=O)[C@H](CC(F)F)NC(=O)[C@@H]1[C@@H]2[C@H](CN1C(=O)[C@@H](NC(=O)N[C@H](CN(C)S(C)(=O)=O)C(C)(C)C)C(C)(C)C)C2(C)C [Example 234] and CN(C[C@@H](NC(=O)N[C@H](C(=O)N1C[C@H]2[C@@H]([C@H]1C(=O)N[C@@H](CC(F)F)C(=O)NCCS(=O)(=O)C(C)(C)C)C2(C)C)C(C)(C)C)C(C)(C)C)S(C)(=O)=O [Example 253] cannot be ordered by Ki: greater than 0.5 µM for the first, greater than 0.5 µM for the second.

First: CN(C[C@@H](NC(=O)N[C@H](C(=O)N1C[C@H]2[C@@H]([C@H]1C(=O)N[C@@H](CC(F)F)C(=O)NCCc1ccccn1)C2(C)C)C(C)(C)C)C(C)(C)C)S(C)(=O)=O [Example 235]
Second: CN(C[C@@H](NC(=O)N[C@H](C(=O)N1C[C@H]2[C@@H]([C@H]1C(=O)N[C@@H](CC(F)F)C(=O)NCCc1cccnc1)C2(C)C)C(C)(C)C)C(C)(C)C)S(C)(=O)=O [Example 236]
The Ki of the first is higher: 0.1 to 0.5 µM for the first, less than 0.1 µM for the second.

CN(C[C@@H](NC(=O)N[C@H](C(=O)N1C[C@H]2[C@@H]([C@H]1C(=O)N[C@@H](CC(F)F)C(=O)NCCc1ccncc1)C2(C)C)C(C)(C)C)C(C)(C)C)S(C)(=O)=O [Example 237] and CN(C[C@@H](NC(=O)N[C@H](C(=O)N1C[C@H]2[C@@H]([C@H]1C(=O)N[C@@H](CC(F)F)C(=O)NCCc1ccc(O)cc1)C2(C)C)C(C)(C)C)C(C)(C)C)S(C)(=O)=O [Example 245] cannot be ordered by Ki: less than 0.1 µM for the first, less than 0.1 µM for the second.

CN(C[C@@H](NC(=O)N[C@H](C(=O)N1C[C@H]2[C@@H]([C@H]1C(=O)N[C@@H](CC(F)F)C(=O)NCCCn1cccc1)C2(C)C)C(C)(C)C)C(C)(C)C)S(C)(=O)=O [Example 238] and CN(C[C@@H](NC(=O)N[C@H](C(=O)N1C[C@H]2[C@@H]([C@H]1C(=O)N[C@@H](CC(F)F)C(=O)NCCCn1ccnc1)C2(C)C)C(C)(C)C)C(C)(C)C)S(C)(=O)=O [Example 239] cannot be ordered by Ki: greater than 0.5 µM for the first, greater than 0.5 µM for the second.

CN(C[C@@H](NC(=O)N[C@H](C(=O)N1C[C@H]2[C@@H]([C@H]1C(=O)N[C@@H](CC(F)F)C(=O)NCCN1CCOCC1)C2(C)C)C(C)(C)C)C(C)(C)C)S(C)(=O)=O [Example 240] and CN(C[C@@H](NC(=O)N[C@H](C(=O)N1C[C@H]2[C@@H]([C@H]1C(=O)N[C@@H](CC(F)F)C(=O)NCCc1c[nH]cn1)C2(C)C)C(C)(C)C)C(C)(C)C)S(C)(=O)=O [Example 244] cannot be ordered by Ki: greater than 0.5 µM for the first, greater than 0.5 µM for the second.

Compared with C[C@H](NC(=O)[C@H](CC(F)F)NC(=O)[C@@H]1[C@@H]2[C@H](CN1C(=O)[C@@H](NC(=O)N[C@H](CN(C)S(C)(=O)=O)C(C)(C)C)C(C)(C)C)C2(C)C)[C@H](O)c1ccccc1 [Example 248], CN(C[C@@H](NC(=O)N[C@H](C(=O)N1C[C@H]2[C@@H]([C@H]1C(=O)N[C@@H](CC(F)F)C(=O)N[C@H](CO)Cc1ccccc1)C2(C)C)C(C)(C)C)C(C)(C)C)S(C)(=O)=O [Example 249] ({X1-CO}-[Tle][Pro(3R,4S-CMe2)][Abu(4,4-F2)][Phe(ol)]) is higher in Ki: less than 0.1 µM for the first, greater than 0.5 µM for the second.

First: CN(C[C@@H](NC(=O)N[C@H](C(=O)N1C[C@H]2[C@@H]([C@H]1C(=O)N[C@@H](CC(F)F)C(=O)NCCc1c[nH]c3ccccc13)C2(C)C)C(C)(C)C)C(C)(C)C)S(C)(=O)=O [Example 252]
Second: CN(C[C@@H](NC(=O)N[C@H](C(=O)N1C[C@H]2[C@@H]([C@H]1C(=O)N[C@@H](CC(F)F)C(=O)NS(=O)(=O)c1ccccc1)C2(C)C)C(C)(C)C)C(C)(C)C)S(C)(=O)=O [Example 257]
The Ki of the first is lower: less than 0.1 µM for the first, greater than 0.5 µM for the second. The first binds more tightly here.

CN(C[C@@H](NC(=O)N[C@H](C(=O)N1C[C@H]2[C@@H]([C@H]1C(=O)N[C@@H](CC(F)F)C(=O)N[C@@H]1CCC[C@H]1OCc1ccccc1)C2(C)C)C(C)(C)C)C(C)(C)C)S(C)(=O)=O [Example 254] and CN(C[C@@H](NC(=O)N[C@H](C(=O)N1C[C@H]2[C@@H]([C@H]1C(=O)N[C@@H](CC(F)F)C(=O)N[C@H]1CCCC[C@@H]1OCc1ccccc1)C2(C)C)C(C)(C)C)C(C)(C)C)S(C)(=O)=O [Example 255] cannot be ordered by Ki: greater than 0.5 µM for the first, greater than 0.5 µM for the second.

In the case of CN(C[C@@H](NC(=O)N[C@H](C(=O)N1C[C@H]2[C@@H]([C@H]1C(=O)N[C@@H](CC(F)F)C(=O)N[C@H]1CCCC[C@H]1OCc1ccccc1)C2(C)C)C(C)(C)C)C(C)(C)C)S(C)(=O)=O [Example 256], the Ki is reported as greater than 0.5 µM.
